Article PMC8589628, “Characterization and Antimicrobial Studies of Iturin-Like and Bogorol-Like Lipopeptides From Brevibacillus spp. Strains GI9 and SKDU10” (Frontiers in Microbiology, 2021)
Like-named read-outs stand apart in the source and are kept apart here. Peptide text beside a SMILES is read from it. * marks the point of attachment. X1 = CC(C)CCCCCCCCCCCCC(=O)*

How the values were obtained:
B. subtilis MTCC 121 = assay type: cell-based, Bacillus subtilis
Description: The antimicrobial activity of HPLC purified compounds was determined against various test strains including S. aureus MTCC 1430, Vibrio cholera MTCC 3904, Bacillus subtilis MTCC 121, Listeria monocytogenes MTCC 839, C. albicans MTCC 183, C. albicans MTCC 1637, C. albicans MTCC 227, C. tropicalis MTCC 184, C. glabrata MTCC 3019, and C. inconspicua MTCC 1074. Antimicrobial activity was also tested against clinical Candida strains and phytopathogenic fungi viz. Fusarium moniliforme MTCC 158, Alternaria brassicicola MTCC 2102 and Colletotrichum acutatum MTCC 1037. Bacterial and Candida test strains were grown in NB and yeast malt broth (YMB), respectively. Fungal test strains were grown in potato dextrose broth (PDB). Minimum inhibitory concentrations (MICs) of purified compounds were evaluated against test organisms by using a microtiter plate dilution assay. Mid-log-phase test strains (5 × 10^5 CFU/ml) were incubated in a 96-well plate with different concentrations of the lipopeptides for 24–48 h at 37°C (final volume of 200 μl). OD was measured at 600 nm after 24 and 48 h for bacteria and yeast, respectively, using an ELISA microplate reader (Thermo Scientific, United States). MIC against phytopathogenic fungi was determined using the 96-well microtiter plate method ([Sharma et al., 2020]).

Proteinase K = Proteinase K (Parengyodontium album, UniProt P06873); assay: Effect of hydrolytic enzymes on activity (well-diffusion assay); assay type: in vitro ADME; details: for Tolerance to proteinase K treatment: 37°C, 6 h; for Residual activity: Proteinase K, 6h/ 37 °C, 50 mM phosphate buffer (pH 7.0), enzyme 0.1, 1.0 and 5.0 mg/ml used, well-diffusion assay
Sequence of Proteinase K (P06873 106-384): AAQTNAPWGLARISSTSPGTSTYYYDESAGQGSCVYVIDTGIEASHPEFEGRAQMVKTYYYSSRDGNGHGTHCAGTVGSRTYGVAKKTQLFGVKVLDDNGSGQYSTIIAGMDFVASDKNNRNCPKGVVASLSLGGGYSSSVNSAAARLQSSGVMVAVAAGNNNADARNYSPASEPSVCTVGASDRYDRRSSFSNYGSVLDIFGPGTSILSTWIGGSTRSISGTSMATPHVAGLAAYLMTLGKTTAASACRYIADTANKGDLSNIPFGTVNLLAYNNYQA
Description: (§1) Sensitivities of purified antimicrobial compounds to temperature, pH, and hydrolytic enzymes were confirmed by performing well-diffusion assay. pH stability was determined by adjusting the pH of aliquots of purified antimicrobial compounds from 2.0 to 12.0 (using 10 mM HCl or NaOH) and incubating at room temperature for 4 h. The residual activity was measured after neutralizing the sample to pH 7.0. To determine temperature susceptibility, antimicrobial compounds were incubated at different temperatures ranging from 37 to 100°C for 1 h and 121°C for 15 min, and then residual antimicrobial activity was determined after cooling the samples to room temperature. Similarly, proteolytic enzymes such as trypsin and proteinase K were used at three different concentrations (0.1, 1.0, and 5.0 mg/ml) to ensure their effect on the activity of antimicrobial compounds. The enzyme solutions were prepared in 50 mM phosphate buffer (pH 7.0). All reactions were performed at 37°C for 6 h followed by deactivation of the enzyme by heating the solution in boiling water for 5 min before performing the activity assay.

Trypsin = assay: as above; assay type: in vitro ADME; details: for Tolerance to trypsin treatment: 37°C, 6 h; for Residual activity: Trypsin, 6h/ 37 °C, 50 mM phosphate buffer (pH 7.0), enzyme 0.1, 1.0 and 5.0 mg/ml used, well-diffusion assay
Description: as §1

Chymotrypsin = assay: as above; assay type: in vitro ADME; details: 6h/ 37 °C
Description: as §1

[1] = Collapse drop assay (CDA); assay type: physicochemical; details: 5 μl of 10 μg/ml stock on mineral oil droplet, observed after 1 min
Description: Collapse Drop Assay (CDA) was performed as mentioned earlier ([Sharma et al., 2020]). To a well of 96 well microtiter plate, 2 μl mineral oil was added and equilibrated at 37°C for 24 h. Purified lipopeptide (5 μl of 10 μg/ml stock) was applied to the top of oil droplet and its shape was observed after 1 min with a magnifying glass for collapse and spread due to reduction in surface tension. Water and triton X-100 served as controls ([Youssef et al., 2004]). To determine critical micelle concentration (CMC), different concentrations of purified lipopeptides were prepared and surface tension was measured on a tensiometer (KRUSS K10T, Germany) at room temperature. The values for CMC were estimated by plotting surface tension as a function of concentration of lipopeptides. A point of intersection was located between the pre and post CMC data plot. The mean value of triplicate experiments was used to increase the accuracy. Concentrations ranging from 0.1 to 1000 μg/ml were used to determine surface tension on a tensiometer.

S. aureus MTCC 1430 [2] = assay: TEM of treated cells; assay type: cell-based, Staphylococcus aureus; details: S. aureus MTCC 1430, 1X MIC, 30 min, 37°C
Description: Effect of antimicrobial compounds on cell membrane of test organisms was determined by transmission electron microscopy (TEM). Test strains, S. aureus MTCC 1430, V. cholerae MTCC 3904, and C. albicans MTCC 183 were cultured to mid-log phase, washed, and re-suspended in 1X PBS (OD 600 nm 0.2). The cell suspensions were incubated (37°C) with 1X MIC of purified antimicrobial compounds for 30 min. Cells after treatment were centrifuged, washed twice with PBS. For TEM, cells of S. aureus MTCC 1430 and V. cholerae MTCC 3904 were subjected to negative stain with 0.1% (w/v) sodium phosphotungstate (PTA, Sigma, United States) in water for 1 min, on a carbon-coated copper grid with 300 mesh (Polyscience, United States) and observed under transmission electron microscope (JEOL JEM 2100, United States) ([Raje et al., 2006]). For SEM, C. albicans MTCC 183 cells were immobilized on poly L-lysine glazed glass slides and incubated at 4°C for 2 h. Cells were fixed using Karnovsky’s fixative and serially dehydrated with gradient of ethanol, freeze dried, and platinum coated. ZEISS EV040 (United States) scanning electron microscope was employed to photograph the cells ([Raje et al., 2006]). Spores of A. brassicicola MTCC 2102 were treated with 2X MIC of lipopeptides for 2 h and observed under phase-contrast microscope (Nickon H600L, Japan). […]

S. aureus MTCC 1430 [3] = assay: TLC-bioautography assay; assay type: cell-based, Staphylococcus aureus; details: 10 μg/ml loaded on TLC silica gel; overlay on NA, 24 h at 37°C
Description: Overlay thin-layer chromatography (TLC)-bioautography assay was used to determine the antimicrobial activity of the purified antimicrobial compounds ([Wedge and Nagle, 2000]). For bioautography, the antimicrobial compounds (10 μg/ml) were loaded on TLC silica gel plates in duplicates and were developed in one dimension using a solvent system containing chloroform: […]: water (65:12:4 v/v). TLC plate was cut into two vertical parts after running. One part of the TLC was used for direct detection of antimicrobial activity by overlaying it on NA containing S. aureus MTCC 1430 (about 10^6 cells ml^–1). After 1 h diffusion at 4°C, the TLC silica plate was removed and the NA plate was incubated for 24 h at 37°C. Other part of the TLC was sprayed with phosphomolybdic acid as a staining reagent for lipids.

Lipase = assay: Effect of hydrolytic enzymes on activity (well-diffusion assay); assay type: in vitro ADME; details: 6h/ 37 °C

## CC(C)CCCCCCCCCCCCC(=O)N[C@H](C(=O)NCC(=O)N[C@@H](C)C(=O)N[C@@H](CO)C(=O)N[C@@H](Cc1c[nH]cn1)C(=O)N[C@@H](CCC(N)=O)C(=O)N[C@@H](CCC(N)=O)C(=O)O)[C@@H](C)O [ILL] (X1-TGASHQQ-OH; N-terminus assumed)
B. subtilis MTCC 121; MTCC 121, 24 h
  MIC value: 260 to 270 µg/mL
Proteinase K
  Tolerance to proteinase K treatment: resistant
  Residual activity: 82.3%
Trypsin
  Tolerance to trypsin treatment: resistant
  Residual activity: 94.1%
Chymotrypsin
  Residual activity: 91.1%
[1]
  Collapse drop assay reaction: positive reaction
S. aureus MTCC 1430 [2]
  Effect on cells (TEM): lysis with accumulation of debris on cell surface, altered morphology, and shrinkage
S. aureus MTCC 1430 [3]
  Inhibition of S. aureus MTCC 1430 in TLC-based bioautography: inhibited S. aureus MTCC 1430
Lipase
  Residual activity: 100%

## Dhb-Tyr-Orn-Ile-Val-Val-Lys-Val-Leu-Asp-Val-Glu [BLL, bogorol like lipopeptide purified from Brevibacillus sp. strain SKDU10; 12 amino acids and C17 hydroxy fatty acid side chain]
B. subtilis MTCC 121; B. subtilis MTCC 121, NB, 5 × 10^5 CFU/ml, 37°C, OD 600 nm after 24 h, 10–550 μg/ml in 5 μg/ml increments
  MIC value: 225 to 235 µg/mL
Proteinase K
  Tolerance to proteinase K treatment: resistant
  Residual activity: 77.7%
Trypsin
  Tolerance to trypsin treatment: resistant
  Residual activity: 91.6%
Chymotrypsin
  Residual activity: 94.4%
[1]
  Collapse drop assay reaction: positive reaction
S. aureus MTCC 1430 [2]
  Effect on cells (TEM): irregularities in structure with rupturing of cell wall and lysis
S. aureus MTCC 1430 [3]
  Inhibition of S. aureus MTCC 1430 in TLC-based bioautography: active against S. aureus MTCC 1430
Lipase
  Residual activity: 100%
